Experimental data taken from ChEMBL document CHEMBL2146458, “Tanshinones as selective and slow-binding inhibitors for SARS-CoV cysteine proteases” (Bioorg Med Chem, 2012).
The source made the active and inactive calls. The rule behind the calls is not given here.

Legend:
[1] = biological target: Replicase polyprotein 1a (Severe acute respiratory syndrome-related coronavirus) (UniProt P0C6U8); conditions: 200 uM
[2] = biological target: T1, Replicase polyprotein 1a (Severe acute respiratory syndrome-related coronavirus, UniProt P0C6U8); conditions: read-out: Ki(app)
[3] = biological target: Replicase polyprotein 1a (Severe acute respiratory syndrome-related coronavirus) (UniProt P0C6U8)
[4] = biological target: Protease (Human immunodeficiency virus 1, UniProt Q9YQ12); test: Inhibition of Human immunodeficiency virus 1 protease preincubated for 10 mins by FRET assay
[5] = biological target: T1, Replicase polyprotein 1a
[6] = Inhibition of chymotrypsin using N-benzoyl-L-tyrosine ethyl ester as substrate assessed as benzoyl-tyrosine production measured every 10 seconds for 6 mins
[7] = biological target: T1, Replicase polyprotein 1a; remark: listed apart in the source
[8] = biological target: Replicase polyprotein 1a (Severe acute respiratory syndrome-related coronavirus) (UniProt P0C6U8); remark: listed apart in the source
[9] = biological target: Replicase polyprotein 1a (Severe acute respiratory syndrome-related coronavirus) (UniProt P0C6U8); remark: listed apart in the source
[10] = biological target: T1, Replicase polyprotein 1a; remark: listed apart in the source
[11] = biological target: T2, Papain (Carica papaya, UniProt P00784); test: Inhibition of papaya papain using N-alpha-benzoyl-L-arginine-pnitroanilide as substrate after 5 mins
T2 sequence (P00784 whole entry): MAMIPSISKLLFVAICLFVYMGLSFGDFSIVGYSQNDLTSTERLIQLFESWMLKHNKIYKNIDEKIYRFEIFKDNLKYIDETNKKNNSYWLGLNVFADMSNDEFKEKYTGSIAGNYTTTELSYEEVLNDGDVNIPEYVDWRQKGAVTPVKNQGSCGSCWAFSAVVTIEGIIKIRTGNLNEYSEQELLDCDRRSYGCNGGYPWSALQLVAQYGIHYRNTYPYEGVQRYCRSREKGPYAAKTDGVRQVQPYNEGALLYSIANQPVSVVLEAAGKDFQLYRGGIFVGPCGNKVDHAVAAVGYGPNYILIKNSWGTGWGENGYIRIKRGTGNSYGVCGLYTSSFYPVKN

[12] = biological target: T1, Replicase polyprotein 1a; remark: listed apart in the source
[13] = biological target: Replicase polyprotein 1a (Severe acute respiratory syndrome-related coronavirus) (UniProt P0C6U8); conditions: TDE = time-dependent effect
[14] = biological target: Replicase polyprotein 1a (Severe acute respiratory syndrome-related coronavirus) (UniProt P0C6U8); conditions: 1 to 100 uM
[15] = biological target: Replicase polyprotein 1a (Severe acute respiratory syndrome-related coronavirus) (UniProt P0C6U8); remark: listed apart in the source
[16] = Inhibition of chymotrypsin using N-benzoyl-L-tyrosine ethyl ester as substrate assessed as benzoyl-tyrosine production at 200 uM measured every 10 seconds for 6 mins
[17] = biological target: Replicase polyprotein 1a (Severe acute respiratory syndrome-related coronavirus) (UniProt P0C6U8); remark: listed apart in the source
[18] = biological target: T3, Papain (Carica papaya) (UniProt P00784); test: Inhibition of papaya papain using N-alpha-benzoyl-L-arginine-pnitroanilide as substrate at 200 uM after 5 mins
T3 sequence (whole entry): T2 sequence (P00784 whole entry)

[19] = biological target: Replicase polyprotein 1a (Severe acute respiratory syndrome-related coronavirus) (UniProt P0C6U8); conditions: 200 uM; remark: listed apart in the source
[20] = biological target: Replicase polyprotein 1a (Severe acute respiratory syndrome-related coronavirus) (UniProt P0C6U8); remark: listed apart in the source
[21] = biological target: Protease (Human immunodeficiency virus 1) (UniProt Q9YQ12); test: Inhibition of Human immunodeficiency virus 1 protease at 200 uM preincubated for 10 mins by FRET assay
Chain of Protease (Human immunodeficiency virus 1) (Q9YQ12 as listed by the source): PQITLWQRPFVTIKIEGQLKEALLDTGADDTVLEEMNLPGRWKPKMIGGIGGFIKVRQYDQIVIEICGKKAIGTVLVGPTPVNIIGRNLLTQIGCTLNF

Chain of Protease (Q9YQ12 whole entry): as the sequence (Q9YQ12 as listed by the source) above

O=C(/C=C/c1cc(O)cc2c1[C@H](C(O)O[C@H](Cc1ccc(O)c(O)c1)C(=O)O)[C@@H](c1ccc(O)c(O)c1)O2)O[C@H](Cc1ccc(O)c(O)c1)C(=O)O (some centres not stated)
inhibition [1]: 30%

C[C@H]1COC2=C1C(=O)C(=O)c1c2ccc2c1CCCC2(C)C [CRYPTOTANSHINONE]
Ki [2]: 9 µM
inhibition [3]: Dose-dependent effect
IC50 [4]: 69.6 µM
IC50 [5]: 227 µM
IC50 [6]: 120 µM
IC50 [7]: 10.1 µM
inhibition [8]: Active
inhibition [9]: Active
IC50 [10]: 0.8 µM
IC50 [11]: 89.8 µM
IC50 [12]: 87.6 µM
inhibition [13]: tde

Cc1cccc2c3c(ccc12)C1=C(C(=O)C3=O)[C@@H](C)CO1 [DIHYDROTANSHINONE I]
inhibition [14]: inactive
Ki [2]: 11.2 µM
IC50 [4]: 50.6 µM
inhibition [15]: Dose-dependent effect
IC50 [5]: 14.4 µM
inhibition [16]: inactive
IC50 [7]: 10.7 µM
inhibition [17]: Active
inhibition [8]: Active
inhibition [9]: Active
IC50 [10]: 4.9 µM
inhibition [18]: inactive
IC50 [12]: 1.2 µM
inhibition [13]: tde

COC(=O)[C@@]1(C)CCCc2c1ccc1c2C(=O)C(=O)c2c(C)coc2-1 [METHYL TANSHINONATE]
inhibition [14]: inactive
Ki [2]: 9.7 µM
IC50 [4]: 103 µM
inhibition [15]: Dose-dependent effect
IC50 [5]: 21.1 µM
IC50 [6]: 124 µM
IC50 [7]: 10.6 µM
inhibition [17]: Active
inhibition [19]: inactive
inhibition [8]: Active
inhibition [9]: Active
IC50 [10]: 9.2 µM
inhibition [18]: inactive
inhibition [13]: tde

CC(C)C1=Cc2ccc3c(c2C(=O)C1=O)CCCC3(C)C [MILTIRONE]
inhibition [14]: inactive
Ki [2]: 21.5 µM
IC50 [4]: 148 µM
inhibition [15]: Dose-dependent effect
IC50 [5]: 21.1 µM
IC50 [6]: 139 µM
IC50 [7]: 78.9 µM
inhibition [17]: Active
inhibition [8]: Active
IC50 [10]: 30 µM
inhibition [20]: Active
IC50 [11]: 88 µM
IC50 [12]: 60.2 µM
inhibition [13]: tde

Cc1coc2c1C(=O)C(=O)c1c-2ccc2c1CCCC2(C)C [TANSHINONE IIA]
inhibition [14]: inactive
Ki [2]: 11.2 µM
IC50 [4]: 59.2 µM
inhibition [15]: Dose-dependent effect
IC50 [5]: 89.1 µM
IC50 [6]: 68.3 µM
IC50 [7]: 17.1 µM
inhibition [17]: Active
inhibition [19]: inactive
inhibition [8]: Active
inhibition [9]: Active
IC50 [10]: 1.6 µM
IC50 [11]: 122 µM
inhibition [13]: tde

Cc1coc2c1C(=O)C(=O)c1c-2ccc2c1CCCC2(C)CO (configuration not stated) [TANSHINONE IIB]
inhibition [21]: inactive
inhibition [14]: inactive
Ki [2]: 21.6 µM
inhibition [15]: Dose-dependent effect
IC50 [5]: 24.8 µM
inhibition [16]: inactive
IC50 [7]: 18 µM
inhibition [17]: Active
inhibition [8]: Active
inhibition [9]: Active
IC50 [10]: 10.7 µM
inhibition [18]: inactive
IC50 [12]: 52 µM
inhibition [13]: tde

Cc1coc2c1C(=O)C(=O)c1c-2ccc2c(C)cccc12 [TANSHINONE I]
inhibition [14]: inactive
Ki [2]: 13.7 µM
IC50 [4]: 45.9 µM
inhibition [15]: Dose-dependent effect
IC50 [5]: 38.7 µM
IC50 [6]: 103 µM
IC50 [7]: 11.5 µM
inhibition [17]: Active
inhibition [8]: Active
inhibition [9]: Active
IC50 [10]: 8.8 µM
inhibition [18]: inactive
IC50 [12]: 0.7 µM
inhibition [13]: tde
